# Read-outs that look alike come from different tables or passages of the source.
# Key:
# Type in all cases: cell-based
# [1] = system: Acinetobacter baumannii ATCC 19606; assay: MIC, CLSI broth microdilution; conditions: ATCC19606
# How it was run: (§1)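 CLSI broth microdilution; 2-fold compound series, final 16-0.0125 μg/mL; final inoculum 5×10^5 CFU/mL. Strains genotyped for resistance markers, passaged twice from frozen stock before testing.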
# [2] = system: Citrobacter freundii species complex OXA-181; assay: MIC, CLSI broth microdilution; conditions: Citrobacter freundii species complex, OXA-181; read-out: MIC
# How it was run: as §1
# [3] = system: Enterobacter cloacae species complex NDM-1; assay: MIC, CLSI broth microdilution
# How it was run: as §1
# [4] = system: Escherichia coli ATCC 25922; assay: MIC, CLSI broth microdilution; conditions: ATCC25922
# How it was run: as §1
# Escherichia coli CMY-2 = assay: MIC, CLSI broth microdilution; conditions: CMY2
# How it was run: as §1
# [5] = system: Escherichia coli CTX-M-15; assay: MIC, CLSI broth microdilution; conditions: CTXM15
# How it was run: as §1
# Escherichia coli SHV-12 = assay: MIC, CLSI broth microdilution; conditions: SHV12
# How it was run: as §1
# [6] = system: Klebsiella aerogenes VIM-1, SHV-12; assay: MIC, CLSI broth microdilution
# How it was run: as §1
# [7] = system: Klebsiella oxytoca KPC-2, TEM-1; assay: MIC, CLSI broth microdilution
# How it was run: as §1
# [8] = system: Klebsiella pneumoniae KPC-2; assay: MIC, CLSI broth microdilution; conditions: KPC2
# How it was run: as §1
# [9] = system: Klebsiella pneumoniae KPC-3; assay: MIC, CLSI broth microdilution
# How it was run: as §1
# [10] = system: Klebsiella pneumoniae OXA-163, OXA-1_OXA-30, SHV-1, TEM-1; assay: MIC, CLSI broth microdilution
# How it was run: (§2)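 Working inoculum of 5×10^5 CFU/mL, prepared from freshly subcultured genotyped strains, was dispensed onto two-fold compound dilutions giving final concentrations of 16-0.0125 μg/mL. Testing adhered to CLSI broth microdilution methodology.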
# [11] = system: Klebsiella pneumoniae OXA-48, SHV-1; assay: MIC, CLSI broth microdilution
# How it was run: as §2
# [12] = system: Klebsiella pneumoniae SHV-12; assay: MIC, CLSI broth microdilution
# How it was run: as §1
# [13] = system: Pseudomonas aeruginosa ATCC 27853; assay: MIC, CLSI broth microdilution; conditions: ATCC27853
# How it was run: as §1
# [14] = system: Pseudomonas aeruginosa AmpC overexpressed; assay: MIC, CLSI broth microdilution
# How it was run: as §2
# [15] = system: Pseudomonas aeruginosa OprD negative; assay: MIC, CLSI broth microdilution
# How it was run: as §2
# [16] = system: Serratia marcescens AmpC overexpressed; assay: MIC, CLSI broth microdilution
# How it was run: as §2
# [17] = system: Serratia marcescens SME-2; assay: MIC, CLSI broth microdilution; conditions: SME2
# How it was run: as §1
# Escherichia coli CMY-DHA [18] = assay: MIC against CMY-DHA producing strains, compound alone
# Method: (§3) Gram-negative and Gram-positive bacterial strains used during the in vitro minimum inhibitory concentration (MIC) determination were obtained either from the American Type Culture Collection (ATCC) or from clinical specimens. All strains were characterized genotypically and the respective antibiotic resistance markers for each strain were identified.
# (§4) Isolates were sub-cultured onto appropriate media and stocked in skim milk at −80° C. Following two subcultures from frozen stock, in vitro antimicrobial susceptibility testing was performed using the Clinical and Laboratory Standards Institute (CLSI) broth microdilution method. Briefly, fresh cultures were suspended in culture media to give a final stock inoculum size of 5×10^7 colony forming units per milliliter of broth (CFU/mL). Test compounds were prepared at a stock solution concentration equal to 128 μg/mL, then diluted to give a final an initial working concentration of 32 μg/mL. 100 μL of the stock solutions were added to the first wells in a 96-well plate and were then diluted using a 2-fold dilution method to give a range of 32-0.025 μg/mL. 100 μL of the bacterial suspensions were then added to the 96-well plates to give a final working inoculum size of 5×10^5 CFU/mL. The final compound concentration range was 16-0.0125 μg/mL. […] MICs for comparator agents were determined using custom-designed, in-house prepared 96-well broth microdilution panels.
# [19] = system: Klebsiella pneumoniae CMY-DHA; assay: as above; conditions: row r32
# Method: as §3, §4
# [20] = system: Proteus mirabilis CMY-DHA; assay: as above; conditions: row r36
# Method: as §3, §4
# [21] = system: Citrobacter freundii species complex Elevated AmpC; assay: Synergistic activity: MIC in the presence of Avibactam; conditions: row r16, in the presence of Avibactam @ 4 μg/mL
# Method: as §4
# (§5) The same method used to test the activity of the claimed compounds was used to determine their synergistic activity when combined with a β-lactamase inhibitor except that either a fixed concentration or fixed ratio of a β-lactamase inhibitor was added to the 96-well plates prior to adding the bacteria cultures. Synergistic activity was defined as the reduction of MIC of a given compound when tested using the β-lactamase inhibitor versus testing the compound in the absence of a β-lactamase inhibitor.
# Escherichia coli CMY-DHA [22] = assay: as above
# Method: as §4, §5
# [23] = system: Klebsiella pneumoniae CMY-DHA; assay: as above; conditions: row r32, in the presence of Avibactam @ 4 μg/mL
# Method: as §4, §5
# [24] = strain of row r26, in the presence of Avibactam @ 4 μg/mL
# [25] = strain of row r27, in the presence of Avibactam @ 4 μg/mL
# [26] = strain of row r28, in the presence of Avibactam @ 4 μg/mL
# [27] = strain of row r29, in the presence of Avibactam @ 4 μg/mL
# [28] = strain of row r30, in the presence of Avibactam @ 4 μg/mL
# [29] = strain of row r31, in the presence of Avibactam @ 4 μg/mL
# [30] = strain of row r34, in the presence of Avibactam @ 4 μg/mL
# [31] = strain of row r35, in the presence of Avibactam @ 4 μg/mL
compound,measurement,setting,value
"Nc1nc(/C(=N/OC2(C(=O)O)CC2)C(=O)N[C@H]2CON(C3(C(=O)O)C[C@H](N4C(=O)c5cc(O)c(O)cc5C4=O)C(=O)O3)C2=O)cs1 (stereo partly drawn) [Cmpd 1, (4S)-2-[(4S)-4-{[(2Z)-2-(2-amino-1,3-thiazol-4-yl)-2-{[(1-carboxycyclopropyl)oxy]imino}acetyl]amino}-3-oxo-1,2-oxazolidin-2-yl]-4-(5,6-dihydroxy-1,3-dioxo-1,3-dihydro-2H-isoindol-2-yl)-5-oxooxolane-2-carboxylic acid]",MIC,[1],0.03 mg/L
same,MIC,[2],0.03 mg/L
same,MIC,[3],0.12 mg/L
same,MIC,[4],0.06 mg/L
same,MIC,Escherichia coli CMY-2,1 mg/L
same,MIC,[5],1 mg/L
same,MIC,Escherichia coli SHV-12,0.5 mg/L
same,MIC,[6],0.5 mg/L
same,MIC,[7],0.0149 mg/L
same,MIC,[8],0.12 mg/L
same,MIC,[9]; KPC3,0.0149 mg/L
same,MIC,[10],0.06 mg/L
same,MIC,[11],0.0149 mg/L
same,MIC,[12]; SHV12,0.0149 mg/L
same,MIC,[13],0.12 mg/L
same,MIC,[14],0.5 mg/L
same,MIC,[15],0.12 mg/L
same,MIC,[16],0.12 mg/L
same,MIC,[17],0.06 mg/L
same,MIC,Escherichia coli CMY-DHA [18]; strain of row r26,1 mg/L
same,MIC,Escherichia coli CMY-DHA [18]; strain of row r27,0.06 mg/L
same,MIC,Escherichia coli CMY-DHA [18]; strain of row r28,0.25 mg/L
same,MIC,Escherichia coli CMY-DHA [18]; strain of row r29,0.5 mg/L
same,MIC,Escherichia coli CMY-DHA [18]; strain of row r30,0.5 mg/L
same,MIC,Escherichia coli CMY-DHA [18]; strain of row r31,2 mg/L
same,MIC,Escherichia coli CMY-DHA [18]; strain of row r34,0.25 mg/L
same,MIC,Escherichia coli CMY-DHA [18]; strain of row r35,0.25 mg/L
same,MIC,[19],1 mg/L
same,MIC,[20],2 mg/L
same,MIC,[21],0.03 mg/L
same,MIC,Escherichia coli CMY-DHA [22]; [24],0.03 mg/L
same,MIC,Escherichia coli CMY-DHA [22]; [25],<=0.008 μg/mL
same,MIC,Escherichia coli CMY-DHA [22]; [26],<=0.008 μg/mL
same,MIC,Escherichia coli CMY-DHA [22]; [27],0.06 mg/L
same,MIC,Escherichia coli CMY-DHA [22]; [28],<=0.008 μg/mL
same,MIC,Escherichia coli CMY-DHA [22]; [29],0.06 mg/L
same,MIC,Escherichia coli CMY-DHA [22]; [30],<=0.008 μg/mL
same,MIC,Escherichia coli CMY-DHA [22]; [31],<=0.008 μg/mL
same,MIC,[23],0.5 mg/L
"Nc1nc(/C(=N/OC2(C(=O)O)CCC(F)(F)CC2)C(=O)N[C@H]2CON(C3(C(=O)O)C[C@H](N4C(=O)c5cc(O)c(O)cc5C4=O)C(=O)O3)C2=O)cs1 (stereo partly drawn) [Cmpd 10, (4S)-2-[(4S)-4-{[(2Z)-2-(2-amino-1,3-thiazol-4-yl)-2-{[(1-carboxy-4,4-difluorocyclohexyl)oxy]imino}acetyl]amino}-3-oxo-1,2-oxazolidin-2-yl]-4-(5,6-dihydroxy-1,3-dioxo-1,3-dihydro-2H-isoindol-2-yl)-5-oxooxolane-2-carboxylic acid]",MIC,[1],0.12 mg/L
same,MIC,[2],≤ 0.015 mg/L
same,MIC,[3],2 mg/L
same,MIC,[4],0.12 mg/L
same,MIC,Escherichia coli CMY-2,1 mg/L
same,MIC,[5],1 mg/L
same,MIC,Escherichia coli SHV-12,2 mg/L
same,MIC,[6],0.12 mg/L
same,MIC,"[7]; KPC-2, TEM-1, read-out: MIC",≤ 0.015 mg/L
same,MIC,[8],0.03 mg/L
same,MIC,"[9]; KPC3, KPC-3, read-out: MIC",0.06 mg/L
same,MIC,[10],0.06 mg/L
same,MIC,[11],≤ 0.015 mg/L
same,MIC,"[12]; SHV12, SHV-12, read-out: MIC",≤ 0.015 mg/L
same,MIC,[13],0.12 mg/L
same,MIC,[14],2 mg/L
same,MIC,[15],0.25 mg/L
same,MIC,[16],0.12 mg/L
same,MIC,[17],0.06 mg/L
same,MIC,Escherichia coli CMY-DHA [18]; strain of row r26,0.5 mg/L
same,MIC,Escherichia coli CMY-DHA [18]; strain of row r27,0.03 mg/L
same,MIC,Escherichia coli CMY-DHA [18]; strain of row r28,0.25 mg/L
same,MIC,Escherichia coli CMY-DHA [18]; strain of row r29,0.5 mg/L
same,MIC,Escherichia coli CMY-DHA [18]; strain of row r30,0.25 mg/L
same,MIC,Escherichia coli CMY-DHA [18]; strain of row r31,1 mg/L
same,MIC,Escherichia coli CMY-DHA [18]; strain of row r34,0.06 mg/L
same,MIC,Escherichia coli CMY-DHA [18]; strain of row r35,0.12 mg/L
same,MIC,[19],0.5 mg/L
same,MIC,[20],0.12 mg/L
same,MIC,[21],0.03 mg/L
same,MIC,Escherichia coli CMY-DHA [22]; [24],0.06 mg/L
same,MIC,Escherichia coli CMY-DHA [22]; [25],<=0.008 μg/mL
same,MIC,Escherichia coli CMY-DHA [22]; [26],0.03 mg/L
same,MIC,Escherichia coli CMY-DHA [22]; [27],0.06 mg/L
same,MIC,Escherichia coli CMY-DHA [22]; [28],<=0.008 μg/mL
same,MIC,Escherichia coli CMY-DHA [22]; [29],0.06 mg/L
same,MIC,Escherichia coli CMY-DHA [22]; [30],0.015 mg/L
same,MIC,Escherichia coli CMY-DHA [22]; [31],0.015 mg/L
same,MIC,[23],0.25 mg/L

# Source: patent US11780832B2, “Lactivicin compounds, their preparation and use as antibacterial agents” (priority 2021, dated 2023)
